“And” between values parts separate entries of the source, which are not always exact repeats. Equal values may be shown once. Read-outs that look alike come from different tables or passages of the source.
Legend:
Pyricularia oryzae [1] = experiment: whole plant or invertebrate; assay type: in vivo; details: rice seedlings, spray before inoculation; for pest or weed control at 0.01 ppm: read-out: Control Efficacy, spray concentration 0.01 ppm; for pest or weed control at 1 ppm: read-out: Control Efficacy, spray concentration 1 ppm; for pest or weed control at 25 ppm: read-out: Control Efficacy, spray concentration 25 ppm; for pest or weed control at 100 ppm: read-out: Control Efficacy, spray concentration 100 ppm
Pyricularia oryzae [2] = assay type: in vivo; details: spray after lesions on rice seedlings, two natural infections

CC(C1CC1)C(O)(Cn1cncn1)c1ccc(Cl)cc1 (centres unmarked) [Ciproconazole]
Control Efficacy (Pyricularia oryzae [1]; spray concentration 10 ppm): 11

CC1COC(Cn2cncn2)(c2ccc(Oc3ccc(Cl)cc3)cc2Cl)O1 (centres unmarked) [Diphenoconazole]
Control Efficacy (Pyricularia oryzae [1]; spray concentration 50 ppm): 62 | Control Efficacy (Pyricularia oryzae [1]; spray concentration 100 ppm): 86

CO/N=C(/C1=NOCCO1)c1ccccc1Oc1ncnc(Oc2ccccc2Cl)c1F [Fluoxastrobin]
pest or weed control at 0.01 ppm (Pyricularia oryzae [1]; Pyricularia oryzae): 22% | pest or weed control at 1 ppm (Pyricularia oryzae [1]; Pyricularia oryzae): 93%

CCCCC(O)(Cn1cncn1)c1ccc(Cl)cc1Cl (centres unmarked) [Hexaconazole]
pest or weed control at 25 ppm (Pyricularia oryzae [1]; Pyricularia oryzae): 55% | pest or weed control at 100 ppm (Pyricularia oryzae [1]; Pyricularia oryzae): 86%

Cc1nc2c(F)c(F)ccc2cc1Oc1cccc(F)c1C(C)(C)O [Ipflufenoquin]
Control Efficacy (Pyricularia oryzae [1]; spray concentration 0.01 ppm): 0 | Control Efficacy (Pyricularia oryzae [1]; spray concentration 0.1 ppm): 76

CNC(=O)C(OC)c1ccccc1COc1cc(C)ccc1C (centres unmarked) [Mandestrobin]
Control Efficacy (Pyricularia oryzae [1]; spray concentration 0.1 ppm): 0

CC(O)(Cn1cncn1)c1ccc(Oc2ccc(Cl)cc2)cc1C(F)(F)F (centres unmarked) [Mefentrifluconazole]
Control Efficacy (Pyricularia oryzae [1]; spray concentration 25 ppm): 35 | Control Efficacy (Pyricularia oryzae [1]; spray concentration 100 ppm): 44

Cc1nn(C)c(F)c1C(=O)Nc1ccccc1C(C)CC(C)C (centres unmarked) [Penflufen]
Control Efficacy (Pyricularia oryzae [1]; spray concentration 1 ppm): 11

CO/C=C(/C(=O)OC)c1ccccc1COc1cccc(C(F)(F)F)n1 [Picoxystrobin]
Control Efficacy (Pyricularia oryzae [1]; spray concentration 0.01 ppm): 22 | Control Efficacy (Pyricularia oryzae [1]; spray concentration 0.1 ppm): 68

CCCC1COC(Cn2cncn2)(c2ccc(Cl)cc2Cl)O1 (centres unmarked) [Propiconazole]
Control Efficacy (Pyricularia oryzae [2]; spray concentration 52 ppm): 55 | pest or weed control at 100 ppm (Pyricularia oryzae [1]; Pyricularia oryzae): 72%

OC(Cc1ccccc1Cl)(Cn1nc[nH]c1=S)C1(Cl)CC1 (centres unmarked) [Prothioconazole]
pest or weed control at 1 ppm (Pyricularia oryzae [1]; Pyricularia oryzae): 39% | pest or weed control at 25 ppm (Pyricularia oryzae [1]; Pyricularia oryzae): 82% | pest or weed control at 100 ppm (Pyricularia oryzae [1]; Pyricularia oryzae): 95%

COC(=O)N(OC)c1ccccc1COc1ccn(-c2ccc(Cl)cc2)n1 [Pyraclostrobin]
pest or weed control at 0.01 ppm (Pyricularia oryzae [1]; Pyricularia oryzae): 44% | pest or weed control at 0.1 ppm (Pyricularia oryzae [1]; Pyricularia oryzae, read-out: Control Efficacy, spray concentration 0.1 ppm): 64%

O=C(Nc1ccccc1-c1ccc(F)c(F)c1)c1nccnc1C(F)(F)F [Pyraziflumid]
Control Efficacy (Pyricularia oryzae [1]; spray concentration 10 ppm): 0 | Control Efficacy (Pyricularia oryzae [1]; spray concentration 100 ppm): 56

O=C1CCc2cccc3c2N1CC3 [Pyroquilon]
pest or weed control at 100 ppm (Pyricularia oryzae [1]; Pyricularia oryzae): 22%

CC(C)(C)C(O)(CCc1ccc(Cl)cc1)Cn1cncn1 (centres unmarked) [Tebuconazole]
Control Efficacy (Pyricularia oryzae [2]; spray concentration 52 ppm): 63 | pest or weed control at 10 ppm (Pyricularia oryzae [1]; Pyricularia oryzae, read-out: Control Efficacy, spray concentration 10 ppm): 58%

CC(=O)Oc1c(C)c(C)nc2c(F)cc(C(C)(C)C)cc12 [Tebufloquin]
Control Efficacy (Pyricularia oryzae [2]; spray concentration 83 ppm, lesions on uppermost unfolded leaf of 50 seedlings): 80 and 81 | Control Efficacy (Pyricularia oryzae [1]; spray concentration 10 ppm): 84 and 76 and 86 and 51 and 48 | Control Efficacy (Pyricularia oryzae [1]; spray concentration 20 ppm): 97 and 90 and 70

CON=C(C(=O)OC)c1ccccc1CON=C(C)c1cccc(C(F)(F)F)c1 [Trifloxystrobin]
pest or weed control at 0.01 ppm (Pyricularia oryzae [1]; Pyricularia oryzae): 75%

Inpyrfluxam
Control Efficacy (Pyricularia oryzae [1]; spray concentration 100 ppm): 74
